In patent US7919488B2, “Therapeutic compounds” (Pfizer Inc., priority 2006, dated 2011) one finds IC50 and Ki data, which are given here for 24 compounds.

Some results are limits rather than exact numbers.

Type in all cases: biochemical
Experiment [1] addresses T1, CYP3A4 (Homo sapiens, UniProt P08684).
T1 construct: 0.1 mg/mL human liver microsomes; from tissue; host or cells: human liver microsomes
The experiment is described as follows: IC50 against CYP3A4 by inhibition of midazolam metabolism in human liver microsomes. The conditions noted are these: 0.1 mg/mL human liver microsomes, 2 μM midazolam, 1 mM NADPH, 1-hydroxymidazolam production, eight minutes; read-out: IC50, μM (HLM, midazolam). The procedure: 3. Determination of IC50 Against CYP3A4 by Measurement of Inhibition of Midazolam Metabolism
This assay was performed using a standard 96 well plate design. […] The incubation substrate mix contains 2 μM midazolam, 0.1 mg/mL human liver microsomes, 1 mM NADPH, and potassium phosphate buffer (100 mM, pH 7.4). Quantitation of metabolite peak area ratio against internal standard is determined by LC-MS/MS analysis. The production of 1-hydroxymidazolam from midazolam metabolism is determined after incubation for eight minutes by comparison to a standard curve generated for the metabolite.
Samples were analyzed in the MRM mode using a Sciex API 3000 mass spectrometer (Applied Biosystems, Foster City, Calif.) with a Paradigm MS4 binary pump (Michrom BioResources Inc., Auburn, Calif.) and a LEAP CTC PAL autosampler (LEAP Technologies, Carrboro, N.C.). A Phenomenex Synergi, 4μ, Polar-RP, 10×2.0 mm column (Phenomenex, Torrance, Calif.) was used for separation with a mobile phase composition of: 0.1% formic acid in water (A) and: 0.1% formic acid in methanol (B). The following gradient was used: […]
The sample injection volume was 10 μL and flow was split post-column with 0.4 mL/min going to the mass spectrometer. Analysis was performed using the following API 3000 mass spectrometer settings: […]
For orientation: Liver microsomes are vesicles of endoplasmic reticulum, rich in cytochrome P450 enzymes.

Experiment [2] concerns the target T1, CYP3A4. The experiment is described as follows: IC50 against CYP3A4 by inhibition of testosterone metabolism in human liver microsomes. Conditions: 0.1 mg/mL human liver microsomes, 25 μM testosterone, 1 mM NADPH, 6-β-OH-testosterone production, eight minutes; read-out: IC50, μM (HLM, testosterone). Put shortly:
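Testosterone used as substrate, incubated for eight minutes. 6-β-OH-testosterone formation quantified by LC-MS/MS (MRM) as peak area ratio to internal standard against a metabolite standard curve. IC50 derived from inhibition of this metabolism.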

Experiment [3] deals with T2, recombinant CYP3A4-b5 enzyme (Baculosomes®) (Homo sapiens, UniProt P08684).
T2 construct: purchased Invitrogen (Carlsbad, Calif.)
T2 sequence (P08684 whole entry): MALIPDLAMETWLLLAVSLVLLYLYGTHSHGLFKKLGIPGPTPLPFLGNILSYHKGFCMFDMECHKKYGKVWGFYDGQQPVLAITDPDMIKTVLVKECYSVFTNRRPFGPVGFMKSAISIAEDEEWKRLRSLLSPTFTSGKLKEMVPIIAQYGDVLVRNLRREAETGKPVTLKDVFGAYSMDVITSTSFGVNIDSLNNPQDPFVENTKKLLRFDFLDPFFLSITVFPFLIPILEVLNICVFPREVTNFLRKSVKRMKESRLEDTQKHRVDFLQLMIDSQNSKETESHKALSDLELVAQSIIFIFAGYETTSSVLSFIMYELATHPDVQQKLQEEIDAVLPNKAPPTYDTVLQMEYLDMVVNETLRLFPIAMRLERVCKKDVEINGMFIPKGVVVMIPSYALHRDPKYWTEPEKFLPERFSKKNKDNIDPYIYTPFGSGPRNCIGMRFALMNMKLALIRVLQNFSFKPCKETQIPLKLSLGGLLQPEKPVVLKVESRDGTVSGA
The experiment is described as follows: Kiapp against recombinant CYP3A4 enzyme (Baculosomes), BFC substrate. The conditions noted are these: recombinant CYP3A4-b5 (Invitrogen), 5 uM BFC, 200 uM NADPH, pre-incubation at least 30 minutes, pH 7.0, room temperature. Put shortly:
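Recombinant CYP3A4-b5 Baculosomes were run in 100 mM sodium phosphate pH 7.0 with 5 mM TCEP and 2% DMF at room temperature, with ~30 min pre-incubation. The reaction was started with NADPH (200 uM) and BFC (5 uM), both final. Kiapp came from initial fluorescence velocities over the first 5 min across inhibitor concentrations.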

T1 sequence (P08684 whole entry): as above

As usually defined, the IC50 is the concentration at which inhibition is half-maximal. As to `O=C(Cn1nc(-c2ccncc2)cc1Cc1ccc(F)cc1)NCc1ncc(F)cn1` [Example 81, 2-[5-(4-fluorobenzyl)-3-pyridin-4-yl-1H-pyrazol-1-yl]-N-[(5-fluoropyrimidin-2-yl)methyl]acetamide], the values for the half-inhibitory concentration (IC50) at CYP3A4 [1] and at CYP3A4 [2] were 0.063 µM and 0.068 µM, respectively. Further, in experiment [3], the Ki turned out to be 0.124 µM.
For the compound `CC(Cc1cnccn1)NC(=O)Cn1nc(-c2ccncc2)cc1Cc1ccc(F)cc1` (stereo not drawn) [Example 82, 2-[5-(4-fluorobenzyl)-3-pyridin-4-yl-1H-pyrazol-1-yl]-N-(1-methyl-2-pyrazin-2-ylethyl)acetamide], the IC50 at CYP3A4 [1] came to 0.023 µM; on CYP3A4 [2] it was 0.025 µM. Further, the Ki in experiment [3] was 0.109 µM.
With `CN(C(=O)Cn1nc(-c2ccncc2)cc1Cc1ccc(F)cc1)[C@H]1CC[C@H](O)CC1` [Example 83, 2-[5-(4-fluorobenzyl)-3-pyridin-4-yl-1H-pyrazol-1-yl]-N-(trans-4-hydroxycyclohexyl)-N-methylacetamide], the IC50 came to 0.015 µM at CYP3A4 [1] and 0.0235 µM at CYP3A4 [2]. In addition, the Ki in experiment [3] came to 0.0458 µM.
Take `NC(=O)[C@@H]1CCC[C@@H]1NC(=O)Cn1nc(-c2ccncc2)cc1Cc1ccc(F)cc1` [Example 84, (1R,2S)-2-({[5-(4-fluorobenzyl)-3-pyridin-4-yl-1H-pyrazol-1-yl]acetyl}amino)cyclo-pentanecarboxamide]: the values for the IC50 on CYP3A4 [1] and at CYP3A4 [2] were 0.021 µM and 0.041 µM, respectively. Moreover, the Ki in experiment [3] came out at 0.156 µM.
The like results for `CC(NC(=O)Cn1nc(-c2ccncc2)cc1Cc1ccc(F)cc1)c1cnn(C)c1` (stereo not drawn) [Example 85, 2-[5-(4-fluorobenzyl)-3-pyridin-4-yl-1H-pyrazol-1-yl]-N-[1-(1-methyl-1H-pyrazol-4-yl)ethyl]acetamide] were, in that order, 0.031 µM, 0.028 µM and 0.0843 µM.
The like results for `Cc1cc(CNC(=O)Cn2nc(-c3ccncc3)cc2Cc2ccc(F)cc2)on1` [Example 86, 2-[5-(4-fluorobenzyl)-3-pyridin-4-yl-1H-pyrazol-1-yl]-N-[(3-methylisoxazol-5-yl)methyl]acetamide] were, in that order, 0.018 µM, 0.013 µM and 0.0571 µM.
The like results for `Cn1ccnc1CNC(=O)Cn1nc(-c2ccncc2)cc1Cc1ccc(F)cc1` [Example 87, 2-[5-(4-fluorobenzyl)-3-pyridin-4-yl-1H-pyrazol-1-yl]-N-[(1-methyl-1H-imidazol-2-yl)methyl]acetamide] were, in that order, 0.019 µM, 0.019 µM and 0.108 µM.
Consider `Cc1cc(CNC(=O)Cn2nc(-c3ccncc3)cc2Cc2ccc(F)cc2)no1` [Example 88, 2-[5-(4-fluorobenzyl)-3-pyridin-4-yl-1H-pyrazol-1-yl]-N-[(5-methylisoxazol-3-yl)methyl]acetamide], for which the IC50 on CYP3A4 [1] is 0.024 µM; at CYP3A4 [2], 0.016 µM. The Ki in experiment [3] amounted to 0.0753 µM.
The like results for `Cc1c(CNC(=O)Cn2nc(-c3ccncc3)cc2Cc2ccc(F)cc2)cnn1C` [Example 89, N-[(1,5-dimethyl-1H-pyrazol-4-yl)methyl]-2-[5-(4-fluorobenzyl)-3-pyridin-4-yl-1H-pyrazol-1-yl]acetamide] were, in that order, 0.016 µM, 0.015 µM and 0.0728 µM.
The like results for `Cc1noc(CNC(=O)Cn2nc(-c3ccncc3)cc2Cc2ccc(F)cc2)n1` [Example 90, 2-[5-(4-fluorobenzyl)-3-pyridin-4-yl-1H-pyrazol-1-yl]-N-[(3-methyl-1,2,4-oxadiazol-5-yl)methyl]acetamide] were, in that order, 0.019 µM, 0.012 µM and 0.0773 µM.
The like results for `Cc1noc(CCNC(=O)Cn2nc(-c3ccncc3)cc2Cc2ccc(F)cc2)n1` [Example 91, 2-[5-(4-fluorobenzyl)-3-pyridin-4-yl-1H-pyrazol-1-yl]-N-[2-(3-methyl-1,2,4-oxadiazol-5-yl)ethyl]acetamide] were, in that order, 0.019 µM, 0.018 µM and 0.112 µM.
`CCCN(C)C1(C(N)=O)CCN(C(=O)Cn2nc(-c3ccncc3)cc2Cc2ccc(F)cc2)CC1` [Example 92, 1-{[5-(4-fluorobenzyl)-3-pyridin-4-yl-1H-pyrazol-1-yl]acetyl}-4-[methyl(propyl)amino] piperidine-4-carboxamide]: the concentration for half-maximal inhibition (IC50) on CYP3A4 [1] worked out at 0.007 µM; on CYP3A4 [2], 0.015 µM. Moreover, the Ki in experiment [3] was 0.0241 µM.
Take `O=C(Cn1nc(-c2ccncc2)cc1Cc1ccc(F)cc1)N[C@H]1CC[C@H](O)CC1` [Example 96, 2-[5-(4-fluorobenzyl)-3-pyridin-4-yl-1H-pyrazol-1-yl]-N-(trans-4-hydroxycyclohexyl)-acetamide]: the IC50 is below 0.013 µM on CYP3A4 [1] and below 0.0225 µM at CYP3A4 [2]. Moreover, the Ki in experiment [3] amounted to 0.0227 µM.
The like results for `O=C(Cn1nc(-c2ccncn2)cc1Cc1ccc(F)cc1)N1CCN(c2ccccn2)CC1` [Example 97, 4-{5-(4-fluorobenzyl)-1-[2-oxo-2-(4-pyridin-2-ylpiperazin-1-yl)ethyl]-1H-pyrazol-3-yl}pyrimidine] were, in that order, 0.045 µM, below 0.012 µM and 0.232 µM.
Take `O=C(Cn1nc(-c2ccncc2)cc1Cc1ccc(F)cc1)N1CC(O)C1` [Example 98, 1-{[5-(4-fluorobenzyl)-3-pyridin-4-yl-1H-pyrazol-1-yl]acetyl}azetidin-3-ol]: the values for the half-maximal inhibitory concentration (IC50) on CYP3A4 [1] and on CYP3A4 [2] were 0.108 µM and 0.082 µM, respectively. The Ki in experiment [3] was 0.378 µM.
As for `CCC(=O)NC1CCN(C(=O)Cn2nc(-c3ccncc3)cc2Cc2ccc(F)cc2)CC1` [Example 101, N-(1-(2-[5-(4-fluorobenzyl)-3-pyridin-4-yl-1H-pyrazol-1-yl]acetyl}piperidin-4-yl)propanamide], the half-maximal inhibitory concentration (IC50) is 0.0105 µM on CYP3A4 [1] and 0.035 µM on CYP3A4 [2]. Also, in experiment [3], the Ki is 0.158 µM.
The like results for `CCS(=O)(=O)NC1CCN(C(=O)Cn2nc(-c3ccncc3)cc2Cc2ccc(F)cc2)CC1` [Example 102, N-(1-(2-[5-(4-fluorobenzyl)-3-pyridin-4-yl-1H-pyrazol-1-yl]acetyl}piperidin-4-yl)ethanesulfonamide] were, in that order, 0.012 µM, 0.023 µM and 0.107 µM.
The like results for `O=C(Cn1nc(-c2ccncc2)cc1Cc1ccc(F)cc1)N1CC[C@@H](N2CCOCC2)C1` [Example 103] were, in that order, 0.025 µM, 0.068 µM and 0.106 µM.
The like results for `CC(C)NC(=O)Cn1nc(-c2c[nH]cn2)cc1Cc1ccc(F)cc1` [Example 111, 2-[5-(4-fluorobenzyl)-3-(1H-imidazol-4-yl)-1H-pyrazol-1-yl]-N-isopropylacetamide] were, in that order, 0.223 µM, 0.714 µM and 0.838 µM.
On to `CC(C)OC(=O)N(C)C1CCN(C(=O)Cn2nc(-c3ccncc3)cc2Cc2ccc(F)cc2)CC1` [Example 112, isopropyl (1-{[5-(4-fluorobenzyl)-3-pyridin-4-yl-1H-pyrazol-1-yl]acetyl}piperidin-4-yl)methylcarbamate], for which the half-inhibitory concentration (IC50) at CYP3A4 [1] turned out to be 0.006 µM; on CYP3A4 [2] it was 0.009 µM. Moreover, the Ki in experiment [3] is 0.002 µM.
The like results for `CCOC(=O)N(C)C1CCN(C(=O)Cn2nc(-c3ccncc3)cc2Cc2ccc(F)cc2)CC1` [Example 113] were, in that order, 0.009 µM, 0.011 µM and 0.00676 µM.
The like results for `CCNC(=O)N(C)C1CCN(C(=O)Cn2nc(-c3ccncc3)cc2Cc2ccc(F)cc2)CC1` [Example 115, 3-ethyl-1-(1-{[5-(4-fluorobenzyl)-3-pyridin-4-yl-1H-pyrazol-1-yl]acetyl}piperidin-4-yl)-1-methylurea] were, in that order, 0.004 µM, 0.015 µM and 0.0338 µM.
On to `CC(C)OC(=O)NC1CCN(C(=O)Cn2nc(-c3ccncc3)cc2Cc2ccc(F)cc2)CC1` [Example 116, isopropyl (1-{[5-(4-fluorobenzyl)-3-pyridin-4-yl-1H-pyrazol-1-yl]acetyl}piperidin-4-yl)carbamate], for which the IC50 at CYP3A4 [1] was below 0.003 µM; at CYP3A4 [2], 0.008 µM. In experiment [3], the Ki is 0.0141 µM.
The like results for `CNC(=O)N(C)C1CCN(C(=O)Cn2nc(-c3ccncc3)cc2Cc2ccc(F)cc2)CC1` [Example 117, 1-(1-{[5-(4-fluorobenzyl)-3-pyridin-4-yl-1H-pyrazol-1-yl]acetyl}piperidin-4-yl)-1,3-dimethylurea] were, in that order, 0.011 µM, 0.018 µM and 0.0702 µM.
